Reference: ChEMBL document CHEMBL5380790 (J Med Chem, 2023)
Converted amounts (≈) assume the structure as drawn. The source made the active and inactive calls. No cut-off for these calls is given here.

Experiments:
[1] = Half life in Cynomolgus monkey at 0.2 mg/kg, iv and measured upto 24 hrs; format: ADME, organism-based, Macaca fascicularis; conditions: in vivo
[2] = Dissociation constant, pKa of the compound; format: physicochemical
[3] = Oral bioavailability in Beagle dog at 20 mg/kg and measured upto 24 hrs; format: ADME, organism-based, Canis lupus familiaris; conditions: in vivo
[4] = Half life in Beagle dog at 0.2 mg/kg, iv and measured upto 24 hrs; format: ADME, organism-based, Canis lupus familiaris; conditions: in vivo
[5] = target: Tyrosine-protein kinase Lck (Homo sapiens, UniProt P06239); assay: Inhibition of LCK (unknown origin) using 33P-ATP as substrate incubated for 120 mins by radiometric kinase assay
[6] = system: Mast/stem cell growth factor receptor Kit (Homo sapiens), P10721 [V559A]; assay: Inhibition of recombinant human KIT V559A mutant in exon 11 using polyGT and ATP as substrate preincubated for 20 mins followed by substrate addition and measured after 240 mins by FRET assay; conditions: time 260.0 min
[7] = target: T1, Mast/stem cell growth factor receptor Kit (Homo sapiens, UniProt P10721); assay: Binding affinity to wild type human KIT in human HEK293 cells at 1 uM by NanoBRET assay; format: cell-based
[8] = Half life in CD-1 mouse at 0.2 mg/kg, iv and measured upto 24 hrs; format: ADME, organism-based; conditions: in vivo
[9] = system: Mast/stem cell growth factor receptor Kit (Homo sapiens), P10721 [T670I]; assay: Inhibition of recombinant human KIT T670I mutant in exon 14 using polyGT and ATP as substrate preincubated for 20 mins followed by substrate addition and measured after 240 mins by FRET assay; conditions: time 260.0 min
[10] = target: hERG (KCNH2) potassium channel (Homo sapiens, UniProt Q12809); assay: Inhibition of human ERG potassium channel transfected in HEK293 cells at holding potential -80 mV at 10 uM and measured for 5 mins by whole cell patch clamp assay; format: toxicity, cell-based; conditions: HEK293 cells transfected with hERG
[11] = system: Mast/stem cell growth factor receptor Kit (Homo sapiens), P10721 [V559D]; assay: Inhibition of recombinant human KIT V559D mutant in exon 11 using polyGT and ATP as substrate preincubated for 20 mins followed by substrate addition and measured after 240 mins by FRET assay; conditions: time 260.0 min
[12] = target: T2, Platelet-derived growth factor receptor alpha (Homo sapiens, UniProt P16234); assay: Inhibition of PDGFRA (unknown origin) using 33P-ATP as substrate incubated for 120 mins by radiometric kinase assay
[13] = Metabolic stability in human hepatocytes assessed as intrinsic clearance measured per million cells; format: ADME, cell-based, Hepatocyte; conditions: read-out: CLH
[14] = Genotoxicity in Salmonella typhimurium by Ames test; format: toxicity; conditions: salmonella enterica subsp. enterica serovar typhimurium
[15] = system: Mast/stem cell growth factor receptor Kit (Homo sapiens), P10721 [V560G]; assay: Inhibition of recombinant human KIT V560G mutant in exon 11 using polyGT and ATP as substrate preincubated for 20 mins followed by substrate addition and measured after 240 mins by FRET assay; conditions: time 260.0 min
[16] = Plasma clearance in Han Wistar rat at 0.2 mg/kg, iv and measured upto 24 hrs; format: ADME, organism-based
[17] = target: Mast/stem cell growth factor receptor Kit (Homo sapiens, UniProt P10721, N822K); assay: Inhibition of KIT N822K mutant autophosphorylation in human Kasumi 1 cells harboring KIT N822K mutation in exon 17 incubated for 45 mins by Luminex-based bead assay; format: cell-based
[18] = target: T2, Platelet-derived growth factor receptor alpha; assay: Inhibition of PDGFRA (unknown origin) at 1 uM using 33P-ATP as substrate incubated for 120 mins by radiometric kinase assay
[19] = target: T1, Mast/stem cell growth factor receptor Kit; assay: Inhibition of wild type KIT (unknown origin) at 1 uM using 33P-ATP as substrate incubated for 120 mins by radiometric kinase assay
[20] = target: T1, Mast/stem cell growth factor receptor Kit; assay: Inhibition of wild type KIT (unknown origin) using 33P-ATP as substrate incubated for 120 mins by radiometric kinase assay
[21] = Oral bioavailability in Cynomolgus monkey at 5 mg/kg and measured upto 24 hrs; format: ADME, organism-based, Macaca fascicularis; conditions: in vivo
[22] = Solubility of compound in FaSSIF at pH 6.5; format: physicochemical
[23] = Oral biovailability in Han Wistar rat at 30 mg/kg and measured upto 24 hrs; format: ADME, organism-based; conditions: in vivo
[24] = Plasma clearance in Cynomolgus monkey at 0.2 mg/kg, iv and measured upto 24 hrs; format: ADME, organism-based, Macaca fascicularis
[25] = target: T3, Receptor-type tyrosine-protein kinase FLT3 (Homo sapiens, UniProt P36888); assay: Inhibition of FLT3 (unknown origin) using 33P-ATP as substrate incubated for 120 mins by radiometric kinase assay
T3 sequence (P36888 whole entry): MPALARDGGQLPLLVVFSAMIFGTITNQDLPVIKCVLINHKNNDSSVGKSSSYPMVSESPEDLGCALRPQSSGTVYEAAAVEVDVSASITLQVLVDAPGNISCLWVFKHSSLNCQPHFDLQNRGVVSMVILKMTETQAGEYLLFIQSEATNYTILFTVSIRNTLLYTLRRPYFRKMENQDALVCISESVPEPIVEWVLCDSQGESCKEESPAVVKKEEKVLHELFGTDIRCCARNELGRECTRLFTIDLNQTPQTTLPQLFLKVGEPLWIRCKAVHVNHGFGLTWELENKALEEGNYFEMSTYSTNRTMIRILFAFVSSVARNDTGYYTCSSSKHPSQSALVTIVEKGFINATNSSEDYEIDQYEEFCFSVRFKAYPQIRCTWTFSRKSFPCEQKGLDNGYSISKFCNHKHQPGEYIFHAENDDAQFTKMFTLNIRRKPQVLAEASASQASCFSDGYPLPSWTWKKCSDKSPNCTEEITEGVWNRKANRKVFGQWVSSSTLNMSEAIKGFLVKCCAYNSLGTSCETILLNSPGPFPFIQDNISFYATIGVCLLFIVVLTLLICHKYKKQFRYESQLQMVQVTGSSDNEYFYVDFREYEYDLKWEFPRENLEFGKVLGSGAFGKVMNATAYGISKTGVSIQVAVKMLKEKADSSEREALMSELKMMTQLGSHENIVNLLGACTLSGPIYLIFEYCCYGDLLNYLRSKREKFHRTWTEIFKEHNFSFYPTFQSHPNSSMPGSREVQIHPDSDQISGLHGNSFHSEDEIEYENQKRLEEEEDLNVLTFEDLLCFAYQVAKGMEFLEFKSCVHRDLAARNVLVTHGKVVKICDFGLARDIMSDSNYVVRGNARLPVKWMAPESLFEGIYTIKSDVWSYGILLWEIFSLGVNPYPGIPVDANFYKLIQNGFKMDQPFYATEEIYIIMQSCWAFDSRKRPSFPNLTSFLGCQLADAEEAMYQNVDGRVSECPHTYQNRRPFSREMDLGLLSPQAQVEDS

[26] = target: Platelet-derived growth factor receptor beta (Homo sapiens, UniProt P09619); assay: Inhibition of PDGFRB (unknown origin) using 33P-ATP as substrate incubated for 120 mins by radiometric kinase assay
GIST-430/654 [27] = format: functional, organism-based; conditions: Homo sapiens, dose 10-35 mg/kg, route po, time 30.0 day
GIST-430/654 [28] = format: functional, organism-based; conditions: Homo sapiens, dose 35.0 mg/kg, route po, time 30.0 day
[29] = Volume of distribution at steady state in CD-1 mouse at 0.2 mg/kg, iv and measured upto 24 hrs; format: ADME, organism-based; conditions: in vivo, read-out: Vdss

T1 sequence (P10721 whole entry): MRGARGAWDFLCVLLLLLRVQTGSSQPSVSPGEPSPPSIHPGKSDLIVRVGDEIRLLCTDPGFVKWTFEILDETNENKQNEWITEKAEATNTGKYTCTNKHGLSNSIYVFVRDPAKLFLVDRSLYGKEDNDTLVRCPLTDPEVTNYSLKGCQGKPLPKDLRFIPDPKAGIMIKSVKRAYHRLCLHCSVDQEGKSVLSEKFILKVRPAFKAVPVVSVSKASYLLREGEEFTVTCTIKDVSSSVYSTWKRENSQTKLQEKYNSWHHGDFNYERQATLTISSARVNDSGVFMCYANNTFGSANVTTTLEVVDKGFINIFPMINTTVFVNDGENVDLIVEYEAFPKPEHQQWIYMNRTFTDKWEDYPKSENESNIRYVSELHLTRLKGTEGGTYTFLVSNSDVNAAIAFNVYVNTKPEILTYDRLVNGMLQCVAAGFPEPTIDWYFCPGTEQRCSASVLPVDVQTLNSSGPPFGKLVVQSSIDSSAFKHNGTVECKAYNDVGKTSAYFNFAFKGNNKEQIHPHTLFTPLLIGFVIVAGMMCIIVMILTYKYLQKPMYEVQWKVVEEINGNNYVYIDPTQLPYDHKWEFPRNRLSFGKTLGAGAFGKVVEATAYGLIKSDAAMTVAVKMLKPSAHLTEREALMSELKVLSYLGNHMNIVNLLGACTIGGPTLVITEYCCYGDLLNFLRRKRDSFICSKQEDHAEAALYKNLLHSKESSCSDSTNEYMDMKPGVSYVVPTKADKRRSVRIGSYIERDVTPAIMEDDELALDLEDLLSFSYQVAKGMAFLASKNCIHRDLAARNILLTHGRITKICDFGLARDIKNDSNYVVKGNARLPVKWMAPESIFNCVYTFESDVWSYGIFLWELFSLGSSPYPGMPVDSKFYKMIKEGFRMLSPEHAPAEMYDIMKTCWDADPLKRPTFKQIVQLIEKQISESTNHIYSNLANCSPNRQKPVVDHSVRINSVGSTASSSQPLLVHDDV
T2 sequence (P16234 whole entry): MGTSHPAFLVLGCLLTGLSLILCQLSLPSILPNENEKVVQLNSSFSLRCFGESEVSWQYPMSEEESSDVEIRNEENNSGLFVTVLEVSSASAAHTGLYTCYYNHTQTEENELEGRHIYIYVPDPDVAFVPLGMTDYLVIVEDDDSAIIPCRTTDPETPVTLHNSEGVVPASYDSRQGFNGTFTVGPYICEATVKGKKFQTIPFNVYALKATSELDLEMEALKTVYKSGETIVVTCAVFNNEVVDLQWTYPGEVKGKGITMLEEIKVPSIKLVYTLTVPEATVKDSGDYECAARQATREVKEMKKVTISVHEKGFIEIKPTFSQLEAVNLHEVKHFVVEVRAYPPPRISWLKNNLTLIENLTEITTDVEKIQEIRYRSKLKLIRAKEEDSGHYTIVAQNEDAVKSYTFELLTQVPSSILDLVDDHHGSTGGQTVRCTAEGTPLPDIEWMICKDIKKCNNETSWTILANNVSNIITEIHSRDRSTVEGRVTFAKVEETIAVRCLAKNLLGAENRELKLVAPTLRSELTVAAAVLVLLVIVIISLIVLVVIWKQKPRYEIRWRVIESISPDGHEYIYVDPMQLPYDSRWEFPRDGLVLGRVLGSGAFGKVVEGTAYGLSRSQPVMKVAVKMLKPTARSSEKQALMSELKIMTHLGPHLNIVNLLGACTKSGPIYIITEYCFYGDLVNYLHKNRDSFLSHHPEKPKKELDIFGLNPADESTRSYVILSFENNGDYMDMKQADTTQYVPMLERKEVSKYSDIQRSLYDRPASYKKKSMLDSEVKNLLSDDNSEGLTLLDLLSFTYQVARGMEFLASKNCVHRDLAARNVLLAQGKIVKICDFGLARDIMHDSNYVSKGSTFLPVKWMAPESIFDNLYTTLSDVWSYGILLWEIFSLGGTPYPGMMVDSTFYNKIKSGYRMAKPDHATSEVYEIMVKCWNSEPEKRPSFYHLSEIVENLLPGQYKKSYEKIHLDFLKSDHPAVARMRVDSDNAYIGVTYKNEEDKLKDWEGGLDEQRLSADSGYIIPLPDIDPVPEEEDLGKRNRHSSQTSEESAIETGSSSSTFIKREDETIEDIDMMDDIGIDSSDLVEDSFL
Sequence of Mast/stem cell growth factor receptor Kit (Homo sapiens), P10721 [T670I] (P10721 whole entry T670I): as the sequence (P10721 whole entry) above, with T670I counted along it
Sequence of Platelet-derived growth factor receptor beta (P09619 whole entry): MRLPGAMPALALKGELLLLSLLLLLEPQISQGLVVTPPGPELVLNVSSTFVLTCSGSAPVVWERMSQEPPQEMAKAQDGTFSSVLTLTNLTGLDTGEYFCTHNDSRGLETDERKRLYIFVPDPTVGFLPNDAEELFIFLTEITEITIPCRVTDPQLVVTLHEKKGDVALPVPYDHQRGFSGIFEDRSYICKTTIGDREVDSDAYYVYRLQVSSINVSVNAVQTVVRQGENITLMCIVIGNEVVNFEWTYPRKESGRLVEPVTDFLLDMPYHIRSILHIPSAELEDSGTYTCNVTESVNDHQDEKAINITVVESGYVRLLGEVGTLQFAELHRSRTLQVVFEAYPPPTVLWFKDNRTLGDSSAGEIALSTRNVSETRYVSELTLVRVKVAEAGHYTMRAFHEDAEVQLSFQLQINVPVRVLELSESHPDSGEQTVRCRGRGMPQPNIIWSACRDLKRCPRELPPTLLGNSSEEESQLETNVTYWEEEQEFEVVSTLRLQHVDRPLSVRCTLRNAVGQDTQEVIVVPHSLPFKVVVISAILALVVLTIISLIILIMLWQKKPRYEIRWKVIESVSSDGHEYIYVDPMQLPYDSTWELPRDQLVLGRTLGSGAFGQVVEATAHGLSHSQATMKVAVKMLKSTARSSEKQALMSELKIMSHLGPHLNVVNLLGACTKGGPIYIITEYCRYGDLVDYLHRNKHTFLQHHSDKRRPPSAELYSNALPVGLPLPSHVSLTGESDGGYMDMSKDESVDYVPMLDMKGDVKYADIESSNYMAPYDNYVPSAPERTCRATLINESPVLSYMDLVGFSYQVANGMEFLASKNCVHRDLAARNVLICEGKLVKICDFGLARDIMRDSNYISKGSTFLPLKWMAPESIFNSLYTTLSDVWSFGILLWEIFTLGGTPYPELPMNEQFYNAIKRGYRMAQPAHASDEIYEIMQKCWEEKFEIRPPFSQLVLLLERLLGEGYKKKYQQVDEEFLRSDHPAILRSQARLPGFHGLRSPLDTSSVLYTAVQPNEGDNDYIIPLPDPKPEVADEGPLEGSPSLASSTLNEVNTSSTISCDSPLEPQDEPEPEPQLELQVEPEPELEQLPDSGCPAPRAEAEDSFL
Sequence of Mast/stem cell growth factor receptor Kit (Homo sapiens, UniProt P10721, N822K) (P10721 26-976 N822K limits assumed): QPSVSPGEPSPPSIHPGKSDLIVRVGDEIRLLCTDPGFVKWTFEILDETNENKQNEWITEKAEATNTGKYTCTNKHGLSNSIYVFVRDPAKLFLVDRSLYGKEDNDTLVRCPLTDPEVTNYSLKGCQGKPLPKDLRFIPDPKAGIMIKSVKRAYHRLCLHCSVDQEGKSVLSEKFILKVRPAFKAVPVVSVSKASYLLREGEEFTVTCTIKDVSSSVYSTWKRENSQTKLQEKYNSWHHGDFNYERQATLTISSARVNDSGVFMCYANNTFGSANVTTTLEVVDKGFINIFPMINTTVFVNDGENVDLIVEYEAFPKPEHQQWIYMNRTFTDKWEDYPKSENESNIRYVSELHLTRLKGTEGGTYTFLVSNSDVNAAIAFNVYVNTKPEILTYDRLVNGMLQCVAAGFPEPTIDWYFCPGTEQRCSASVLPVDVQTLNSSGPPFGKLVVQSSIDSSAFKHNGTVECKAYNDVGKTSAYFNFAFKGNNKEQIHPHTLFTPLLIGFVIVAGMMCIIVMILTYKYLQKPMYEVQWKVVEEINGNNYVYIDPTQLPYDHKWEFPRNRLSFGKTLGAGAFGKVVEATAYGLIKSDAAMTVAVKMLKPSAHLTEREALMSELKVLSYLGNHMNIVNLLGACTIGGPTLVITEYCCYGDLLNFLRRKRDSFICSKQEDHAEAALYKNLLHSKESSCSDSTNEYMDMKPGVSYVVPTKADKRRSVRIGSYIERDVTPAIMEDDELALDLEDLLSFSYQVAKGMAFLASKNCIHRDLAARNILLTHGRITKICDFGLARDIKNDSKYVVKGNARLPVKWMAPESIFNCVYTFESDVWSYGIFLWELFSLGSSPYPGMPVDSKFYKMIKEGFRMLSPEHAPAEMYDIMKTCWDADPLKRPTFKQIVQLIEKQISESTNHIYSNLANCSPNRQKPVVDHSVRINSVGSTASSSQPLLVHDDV
Sequence of Mast/stem cell growth factor receptor Kit (Homo sapiens), P10721 [V559D] (P10721 whole entry V559D): as the sequence (P10721 whole entry) above, with V559D counted along it
Sequence of Tyrosine-protein kinase Lck (P06239 whole entry): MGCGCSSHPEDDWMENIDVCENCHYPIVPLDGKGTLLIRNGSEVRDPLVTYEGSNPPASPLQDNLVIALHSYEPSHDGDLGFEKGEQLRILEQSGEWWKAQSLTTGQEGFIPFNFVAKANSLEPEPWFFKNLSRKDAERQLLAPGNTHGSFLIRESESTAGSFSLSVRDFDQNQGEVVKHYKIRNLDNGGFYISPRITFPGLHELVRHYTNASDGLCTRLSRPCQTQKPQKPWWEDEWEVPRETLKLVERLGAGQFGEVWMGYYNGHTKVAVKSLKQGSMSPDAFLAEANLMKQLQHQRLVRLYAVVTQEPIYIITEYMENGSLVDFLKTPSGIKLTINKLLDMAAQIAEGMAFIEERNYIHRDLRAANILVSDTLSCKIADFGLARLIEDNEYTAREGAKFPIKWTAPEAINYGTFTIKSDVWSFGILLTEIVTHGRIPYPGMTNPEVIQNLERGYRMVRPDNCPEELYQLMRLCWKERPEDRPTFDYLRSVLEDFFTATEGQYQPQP
Sequence of Mast/stem cell growth factor receptor Kit (Homo sapiens), P10721 [V560G] (P10721 whole entry V560G): as the sequence (P10721 whole entry) above, with V560G counted along it
Sequence of Mast/stem cell growth factor receptor Kit (Homo sapiens), P10721 [V559A] (P10721 whole entry V559A): as the sequence (P10721 whole entry) above, with V559A counted along it

half-life [1]: 4.4 h | pKa [2]: 9.7 | bioavailability [3]: 80% | half-life [4]: 9.6 h | IC50 [5]: 141 nM | inhibition [6]: Active | Activity [7]: 65% | half-life [8]: 6.9 h | inhibition [9]: inactive | inhibition [11]: Active | IC50 [12]: 50 nM | hepatocyte CLint [13]: 21 µL/min/1e6 cells | inhibition [15]: Active | clearance [16]: 36.7 mL/min/kg | IC50 [17]: 4 nM | inhibition [18]: > 80% | inhibition [19]: > 80% | IC50 [20]: 44 nM | bioavailability [21]: 31% | solubility [22]: 374 µg/mL (≈ 735 µM) | bioavailability [23]: 63% | clearance [24]: 36.7 mL/min/kg | IC50 [25]: 141 nM | IC50 [26]: 2.6 nM | Vd [29]: 11 L/kg
Compound: Cn1cc(-c2ccc(CNc3cc(-c4cnc5cc(OCCCN6CCCC6)ccn45)ncn3)cc2)cn1 [IDRX-42]
inhibition at 5 min, 10 µM [10]: -86% | Activity [14]: Non-Toxic | inhibition (GIST-430/654 [27]): Dose-Dependent Effect | Activity (GIST-430/654 [28]): Active
